# In patent US20170233409A1, “TYPE IV SECRETION SYSTEM INHIBITORS” (priority 2016, published 2017):
# Entries after “also recorded” stand apart in the source; their conditions may differ.
# What was measured:
# TLR9 = biological target: T1, TLR9 (Homo sapiens, UniProt Q9NR96); assay: TLR9 activation by CpG ODN (control); type: cell-based; conditions: 50 μM
# T1 construct: host or cells: HEK293-TLR9 reporter cell line
# T1 sequence (Q9NR96 26-1032): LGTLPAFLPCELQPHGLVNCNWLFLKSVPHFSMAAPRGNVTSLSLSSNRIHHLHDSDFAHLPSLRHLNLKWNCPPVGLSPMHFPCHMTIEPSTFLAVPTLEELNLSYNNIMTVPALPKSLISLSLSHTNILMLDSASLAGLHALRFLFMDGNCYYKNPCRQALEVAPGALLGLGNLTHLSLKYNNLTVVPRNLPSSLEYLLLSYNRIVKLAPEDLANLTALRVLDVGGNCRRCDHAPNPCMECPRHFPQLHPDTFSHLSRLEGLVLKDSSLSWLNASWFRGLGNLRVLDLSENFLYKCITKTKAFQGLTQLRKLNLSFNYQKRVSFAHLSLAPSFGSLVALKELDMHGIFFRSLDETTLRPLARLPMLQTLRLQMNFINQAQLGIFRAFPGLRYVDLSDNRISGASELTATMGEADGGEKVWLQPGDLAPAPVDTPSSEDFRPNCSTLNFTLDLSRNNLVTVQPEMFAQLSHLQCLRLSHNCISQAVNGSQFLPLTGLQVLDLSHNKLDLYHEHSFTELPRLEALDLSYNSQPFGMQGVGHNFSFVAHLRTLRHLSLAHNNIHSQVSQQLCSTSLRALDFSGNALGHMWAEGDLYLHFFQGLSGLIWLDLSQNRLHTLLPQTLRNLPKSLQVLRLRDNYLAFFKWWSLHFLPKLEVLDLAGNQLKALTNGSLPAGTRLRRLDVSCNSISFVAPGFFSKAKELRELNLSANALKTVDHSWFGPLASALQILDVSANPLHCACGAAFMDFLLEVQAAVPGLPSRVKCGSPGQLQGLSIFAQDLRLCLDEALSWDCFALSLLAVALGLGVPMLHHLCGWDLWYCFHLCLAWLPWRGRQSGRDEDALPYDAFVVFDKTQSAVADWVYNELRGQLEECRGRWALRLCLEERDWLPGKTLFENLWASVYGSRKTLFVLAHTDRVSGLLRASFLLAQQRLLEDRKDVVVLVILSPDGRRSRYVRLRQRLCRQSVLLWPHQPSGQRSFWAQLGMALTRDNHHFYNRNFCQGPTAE
# Procedure: Inhibition of T4SS-dependent activation of human TLR9 signaling by H. pylori. H. pylori strain J166 was grown in broth culture overnight, and was subsequently pre-treated in the indicated compound at a final concentration of 50 μM, or in an equivalent volume of DMSO vehicle for 30 min prior to inoculating cultured HEK293-TLR9 reporter cell lines. Co-cultures were incubated in the presence of 50 μM compound or an equivalent volume of DMSO vehicle supplemented in the cell culture media for the duration of incubation (18 hours). TLR9 activation was assayed using a colorimetric assay (Invivogen), and TLR9 activation in the presence of type IV secretion system (T4SS) inhibitor compounds is expressed as a percentage of TLR9 activation by H. pylori in the presence of vehicle. As a control, TLR9 was activated with the immunostimulatory synthetic ligand CpG oligodeoxynucleotide (CpG ODN) in the presence of DMSO or inhibitor compound at 50 μM final concentration.
# H. pylori cag T4SS = type: cell-based; conditions: strain J166 pre-treated 30 min, 50 μM, 18 hours
# cag T4SS [1] = assay: NF-κB luciferase reporter activation by H. pylori in AGS cells; type: cell-based
# Procedure: Quantitation of NF-κB signaling activation. AGS cells stably transfected with an NF-κB-luciferase reporter (AGS NF-κB-luc) were cultured for 24 h and treated as described for the IL-8 induction studies. After 4 h co-culture with H. pylori, cell monolayers were washed with sterile PBS, and cell monolayer extracts were obtained by passive cell lysis. NF-κB-luciferase activity was measured by the Steady-Glo Luciferase Assay System (Promega) on a BioTek Synergy 4 plate reader, and plates were normalized to the DMSO vehicle control for each dilution series.
# [2] = test system: IncF group R1-16 conjugative T4SS; assay: DNA conjugation efficiency, R1-16; conditions: 150 μM
# Procedure: (§1) Analysis of DNA conjugation efficiency. Overnight cultures of donor E. coli MG1655 harboring pKM101, donor E. coli MS411 harboring R1-16, and recipient E. coli MG1655 (WM1652) were grown at 37° C. with shaking at 225 rpm in LB/antibiotic, were diluted in antibiotic-free LB containing DMSO or 150 μM compound, and incubated with shaking at 37° C. to reach an OD600 of ˜0.3. Donor and recipient cells were mixed at a ratio of 1:1 on 0.22 μM pore size mixed cellulose ester filters (Millipore) on antibiotic-free LB plates for 2 h at 37° C. Filters were aseptically removed from LB plates and incubated in 100 μl antibiotic-free LB to dislodge E. coli from membranes. Serial dilutions were plated on the appropriate antibiotic (or dual antibiotic) LB plates to determine the number of donor, recipient, and transconjugant cells. Colonies were enumerated after 24 h, and conjugation efficiencies were calculated by dividing the average number of transconjugates by the average number of donors (either pKM101 or R1-16 donor cells). Conjugation efficiency in the presence of compound is expressed as a percentage of conjugation efficiency in DMSO.
# cag T4SS [3] = type: cell-based, H. pylori
# cag T4SS [4] = assay: CagA translocation assay (tyrosine-phosphorylated CagA immunoblot); type: cell-based, H. pylori; conditions: 150 μM; compared to vehicle-only and GKP42-treated controls
# H. pylori = H. pylori viability (cellular ATP, CellTiter-Glo); type: cell-based; conditions: concentrations up to 150 μM
# [5] = test system: IncN group conjugative T4SS encoded by pKM101; assay: DNA conjugation efficiency, pKM101; conditions: 150 μM, compared to vehicle controls
# Procedure: as §1
# cag T4SS pili = assay: Scanning electron microscopy of cag T4SS pili; type: cell-based, H. pylori; conditions: 150 μM, SEM
# Procedure: Scanning electron microscopy. Overnight cultures of H. pylori were diluted to OD600˜0.3 and incubated with shaking at 37° C., 5% CO2 for 1 h in the presence of vehicle or 150 μM compound and co-cultured with AGS cells on tissue culture-treated coverslips (BD Biosciences) at an MOI of 100 in the presence of 150 μM compound or vehicle. H. pylori-AGS cell co-cultures were processed and imaged.
# Field emission gun scanning electron microscopy. Samples were fixed with 2.0% paraformaldehyde, 2.5% glutaraldehyde in 0.05 M sodium cacodylate buffer, and secondarily fixed with 0.1% osmium tetroxide. Sequential dehydration was performed by washing with increasing concentrations of ethanol. Samples were dried at the critical point with a Tousimis critical point dryer. Coverslips were mounted onto aluminum stubs and sputter coated with gold-palladium and imaged with an FEI Quanta 250 FEG-SEM.
smiles,measurement,setting,value
"COc1ccc(Cc2cc(=O)n3c(c2C2CC2)SC[C@H]3C(=O)O)c2ccccc12 [KSK85, (3R)-7-[(4-methoxynaphthalen-1-yl)methyl]-8-cyclopropyl-5-oxo-2,3-dihydro-5H-[1,3]thiazolo[3,2-a]pyridine-3-carboxylic acid]",activation of TLR9 by CpG ODN,TLR9,not by CpG ODN
same,T4SS-dependent activation of TLR9 by H. pylori,H. pylori cag T4SS,inhibit
same,cag T4SS-dependent NF-κB activation,"cag T4SS [1]; WT H. pylori, AGS NF-κB-luc cells",significantly reduced; also recorded: reduced compared to the inhibitory effects of C10
same,cag T4SS-mediated NF-κB activation by H. pylori strains of different phylogeographic origins,cag T4SS [1]; multiple H. pylori strains,inhibited
same,NF-κB activation by H. pylori ΔcagA mutant compared to WT strain,cag T4SS [1]; ΔcagA mutant,significantly enhanced
same,DNA conjugation efficiency of the de-repressed R1-16 system,[2],did not
same,"LogEC50, attenuation of cag T4SS-dependent IL-8 secretion","cag T4SS [3]; 4.5 h co-culture, normalized IL-8 secretion, non-linear regression",−1.14
same,cag T4SS-dependent IL-8 secretion,"cag T4SS [3]; H. pylori-gastric epithelial cell co-culture, 25-150 μM",significantly reduced
same,EC50,"cag T4SS [3]; read-out: EC50, attenuation of cag T4SS-dependent IL-8 secretion, 4.5 h co-culture, normalized IL-8 secretion, non-linear regression",72.2 µM
same,amount of tyrosine-phosphorylated CagA in cultured gastric epithelial cells,cag T4SS [4],significantly reduced
same,viability of bacterial cells,H. pylori,did not impact viability
same,DNA conjugation efficiency of pKM101,[5],reduced
same,cag T4SS pilus formation at the bacteria-host cell interface,cag T4SS pili,abrogated pilus formation in the majority of H. pylori cells
